Paper PMC7824341, “Phenylhydrazone and Quinazoline Derivatives from the Cold-Seep-Derived Fungus Penicillium oxalicum” (Marine Drugs, 2020)
In brackets after ≈: the same amount, converted by molar mass. Read-outs that look alike come from different tables or passages of the source.

Assays:
[1] = test system: Artemia salina; test: in vivo; settings: marine zooplankton Artemia salina
Description: (§1) Mariculture is often threatened by harmful algal blooms and pathogenic bacteria. Compounds 1–5 and dankasterone A were assayed for inhibition of the three microalgae Chattonella marina, Heterosigma akashiwo, and Prorocentrum donghaiense, and the results are shown in Table 4. […] In addition, their inhibition against four marine-derived bacterial pathogens including Vibrio anguillarum, Vibrio harveyi, Vibrio parahaemolyticus, and Vibrio splendidus was detected using the disk diffusion method. […] The MIC values of active molecules were also measured, but only those of 4 and 5 (8 μg/mL) appeared lower than 10 μg/mL. […] In view of the above inhibitory effects of 1, 4, 5, and dankasterone A on the microalgal and bacterial species, their toxicities to the marine zooplankton Artemia salina were also tested.

[2] = test system: Heterosigma akashiwo; test: Inhibition of marine microalgae; format: cell-based; settings: microalga Heterosigma akashiwo; for IC50: Heterosigma akashiwo, read-out: IC50 H. akashiwo
Description: as §1

[3] = test system: Chattonella marina; test: Inhibition of marine microalgae; format: cell-based; settings: microalga Chattonella marina; for IC50: Chattonella marina, read-out: IC50 C. marina
Description: as §1

[4] = test system: Prorocentrum donghaiense; test: Inhibition of marine microalgae; format: cell-based; settings: microalga Prorocentrum donghaiense; for IC50: Prorocentrum donghaiense, read-out: IC50 P. donghaiense
Description: as §1

[5] = test system: V. harveyi and V. parahaemolyticus; test: MIC of active molecules against marine-derived bacterial pathogens; format: cell-based, Vibrio harveyi, Vibrio parahaemolyticus; settings: bacterial strain not given, active molecules were those inhibiting V. harveyi and V. parahaemolyticus
Description: as §1

[6] = test system: Vibrio anguillarum; test: Antibacterial disk diffusion method; format: cell-based; settings: at 20 μg/disk; for zone of inhibition at 20 µg/disc: Vibrio anguillarum, read-out: Inhibitory Zone Diameter V. anguillarum
Description: as §1

[7] = test system: Vibrio splendidus; test: Antibacterial disk diffusion method; format: cell-based; settings: at 20 μg/disk; for zone of inhibition at 20 µg/disc: Vibrio splendidus, read-out: Inhibitory Zone Diameter V. splendidus
Description: as §1

[8] = in vivo; settings: in vivo; marine zooplankton Artemia salina
Description: as §1

[9] = test system: Vibrio parahaemolyticus; test: Antibacterial disk diffusion method; format: cell-based; settings: at 20 μg/disk, read-out: Inhibitory Zone Diameter V. parahaemolyticus
Description: as §1

[10] = test system: Vibrio harveyi; test: Antibacterial disk diffusion method; format: cell-based; settings: at 20 μg/disk, read-out: Inhibitory Zone Diameter V. harveyi
Description: as §1

Row | Compound | LC50 A. salina [1] [µg/mL] | IC50 H. akashiwo [2] [µg/mL] | IC50 C. marina [3] [µg/mL] | IC50 P. donghaiense [4] [µg/mL] | MIC [5] [µg/mL] | Inhibitory Zone Diameter V. anguillarum [6] [mm] | Inhibitory Zone Diameter V. splendidus [7] [mm] | LC50 [8] [µg/mL] | IC50 [2] [µg/mL] | IC50 [3] [µg/mL] | IC50 [4] [µg/mL] | zone of inhibition at 20 µg/disc [9] [mm] | zone of inhibition at 20 µg/disc [6] [mm] | zone of inhibition at 20 µg/disc [7] [mm] | zone of inhibition at 20 µg/disc [10] [mm] | MIC ([5]; read-out: MIC) [µg/mL]
1 | COC(=O)C(Cc1ccc(O)cc1)n1cnc2ccccc2c1=O (stereo not shown) [Compound 5, Penoxazolone B] | >100 | 9.0 (≈ 27.7 µM) | 9.1 (≈ 28.1 µM) | 1.2 (≈ 3.7 µM) | 8 | 0 | 7.0 | – | – | – | – | – | – | – | – | –
2 | CC(C)C(C)C=CC(C)C1CCC(=O)C23CC(=O)C4=CC(=NNc5ccccc5C(=O)O)CCC4(C)C2CCC13C (stereo not shown) [Compound 1, Penoxahydrazone A] | – | – | – | – | – | – | – | 58 (≈ 104 µM) | 3.7 (≈ 6.62 µM) | 1.2 (≈ 2.15 µM) | 0.68 (≈ 1.22 µM) | > 10 | 0 | 0 | > 10 | –
3 | [K+].[K+].[O]=[Cr](=[O])([O-])[O][Cr](=[O])(=[O])[O-] [Compound K2Cr2O7, K2Cr2O7, reference compound] | 18 | 2.4 | 0.60 | 1.2 | – | – | – | – | – | – | – | – | – | – | – | –
4 | CC(C)[C@@H](C)/C=C/[C@@H](C)[C@H]1CCC(=O)[C@]23CC(=O)C4=CC(=O)CC[C@]4(C)[C@H]2CC[C@]13C [dankasterone A] | – | – | – | – | – | – | – | 43 (≈ 101 µM) | 4.6 (≈ 10.8 µM) | 1.9 (≈ 4.47 µM) | 1 (≈ 2.36 µM) | > 10 | 7 | 0 | > 10 | –
5 | COC(=O)C(Cc1ccc(O)cc1)n1cnc2ccccc2c1=O (stereo not shown) [Compound 4, Penoxazolone A] | – | – | 2.8 (≈ 8.63 µM) | 0.57 (≈ 1.76 µM) | – | 7.0 | – | > 100 | 8.1 (≈ 25 µM) | – | – | > 10 | – | 7.3 | > 10 | 8
6 | O=C(N[C@H](CO)[C@H](O)c1ccc([N+](=O)[O-])cc1)C(Cl)Cl [chloramphenicol, reference compound] | – | – | – | – | – | – | – | – | – | – | – | 28 | 18 | 23 | 29 | –
